Measured values: patent publication US6521619B2, “Aryl phenylcyclopropyl sulfide derivatives and their use as cell adhesion inhibiting anti-inflammatory and immune suppressive agents” (Icos Corporation, priority 2000, dated 2003)
Read-outs that look alike come from different tables or passages of the source.

Key:
[1] = biological target: T1, ICAM-1/LFA-1 interaction (recombinant LFA-1, biotinylated recombinant ICAM-1/Ig) (Homo sapiens, UniProt P20701); experiment: ICAM-1/LFA-1 Biochemical Interaction Assay (46A); type: binding
T1 construct: Recombinant LFA-1 (100 mL of 0.7 mg/ml, ICOS Corporation) in D-PBS is then added to each well
Experimental: Compounds that antagonize the interaction between ICAM-1 and LFA-1 can be identified, and their activities quantitated, using both biochemical and cell-based adhesion assays. A primary biochemical assay, described below as assay 46A, was utilized to measure the ability of the present compounds to block the interaction between the integrin LFA-1 and its adhesion partner ICAM-1.
46A. ICAM-1/LFA-1 Biochemical Interaction Assay
In the biochemical assay, 100 mL of anti-LFA-1 antibody (ICOS Corporation) at a concentration of 5 mg/ml in Dulbecco's phosphate-buffered saline (D-PBS) is used to coat wells of a 96-well microtiter plate overnight at 4° C. The wells are then washed twice with wash buffer (D-PBS w/o Ca^++ or Mg^++, 0.05% Tween 20) and blocked by addition of 200 mL of D-PBS, 5% fish skin gelatin. Recombinant LFA-1 (100 mL of 0.7 mg/ml, ICOS Corporation) in D-PBS is then added to each well. Incubation continues for 1 hour at room temperature and the wells are washed twice with wash buffer. Serial dilutions of compounds being assayed as ICAM-1/LFA-1 antagonists, prepared as 10 mM stock solutions in dimethyl sulfoxide (DMSO), are diluted in D-PBS, 2 mM MgCl2, 1% fish skin gelatin and 50 mL of each dilution added to duplicate wells. This is followed by addition of […] of 0.8 mg/ml biotinylated recombinant ICAM-1/Ig (ICOS Corporation) to the wells and the plates are incubated at room temperature for 1 hour The wells are then washed twice with wash buffer and 100 mL of Europium-labeled Streptavidin (Wallac Oy) diluted 1:100 in Delfia assay buffer (Wallac Oy) are added to the wells. Incubation proceeds for 1 hour at room temperature. […] Incubation proceeds for 5 minutes with constant mixing.
where “background” refers to wells that are not coated with anti-LFA-1 antibody.

[2] = tested on: JY-8 cells (expressing LFA-1) adhering to immobilized ICAM-1; experiment: ICAM-1/JY-8 Cell Adhesion Assay (46B); type: cell-based, human; conditions: Homo sapiens, JY-8 cell adhesion to ICAM-1; for inhibition at 1 µM: @ 1 μM compound (cell); for inhibition at 2 µM: @ 2 μM compound (cell)
Experimental: Biologically relevant activity of the compounds in this invention was confirmed using a cell-based adhesion assay, (described below as assay 46B) which measured the ability of the present compounds to block the adherence of JY-8 cells (a human EBV-transformed B cell line expressing LFA-1 on its surface) to immobilized ICAM-1.
46B. ICAM-1 /JY-8 Cell Adhesion Assay
For measurement of inhibitory activity in the cell-based adhesion assay, 96-well microtiter plates are coated with 70 μL of recombinant ICAM-1/g (ICOS Corporation) at a concentration of 5 μg/mL in D-PBS w/o Ca^++ or Mg^++ overnight at 4° C. The wells are then washed twice with D-PBS and blocked by addition of 200 μL of D-PBS, 5% fish skin gelatin by incubation for 1 hour at room temperature. Fluorescent tagged JY-8 cells (a human EBV-transformed B cell line expressing LFA-1 on its surface; 50 μL at 2×10^6 cells/ml in RPMI 1640 (standard cell culture medium)/1% fetal bovine serum) are added to the wells. For fluorescent labeling of JY-8 cells, 5×10^6 cells washed once in RPMI 1640 are resuspended in 1 mL of RPMI 1640 containing 2 μM Calceiun AM (MolecularProbes), are incubated at 37° C for 30 minutes and washed once with RPMI-1640/1% fetal bovine serum. Dilutions of compounds to be assayed for ICAM-1/LFA-1 antagonistic activity are prepared in RPMI-1640/1% fetal bovine serum from 10 mM stock solutions in DMSO and 50 μL are added to duplicate wells. Microtiter plates are incubated for 45 minutes at room temperature and the wells are washed gently once with RPMI-1640/1% fetal bovine serum. Fluorescent intensity is measured in a fluorescent plate reader with an excitation wavelength at 485 nm and an emission wavelength at 530 nm. The percent inhibition of a candidate compound at a given concentration is calculated using the following equation: [formula]
and these concentration/inhibition data are used to generate dose response curves, from which IC50 values are derived.

[3] = @ 2 μM compound, read-out: % inhibition

T1 sequence (P20701 26-1170): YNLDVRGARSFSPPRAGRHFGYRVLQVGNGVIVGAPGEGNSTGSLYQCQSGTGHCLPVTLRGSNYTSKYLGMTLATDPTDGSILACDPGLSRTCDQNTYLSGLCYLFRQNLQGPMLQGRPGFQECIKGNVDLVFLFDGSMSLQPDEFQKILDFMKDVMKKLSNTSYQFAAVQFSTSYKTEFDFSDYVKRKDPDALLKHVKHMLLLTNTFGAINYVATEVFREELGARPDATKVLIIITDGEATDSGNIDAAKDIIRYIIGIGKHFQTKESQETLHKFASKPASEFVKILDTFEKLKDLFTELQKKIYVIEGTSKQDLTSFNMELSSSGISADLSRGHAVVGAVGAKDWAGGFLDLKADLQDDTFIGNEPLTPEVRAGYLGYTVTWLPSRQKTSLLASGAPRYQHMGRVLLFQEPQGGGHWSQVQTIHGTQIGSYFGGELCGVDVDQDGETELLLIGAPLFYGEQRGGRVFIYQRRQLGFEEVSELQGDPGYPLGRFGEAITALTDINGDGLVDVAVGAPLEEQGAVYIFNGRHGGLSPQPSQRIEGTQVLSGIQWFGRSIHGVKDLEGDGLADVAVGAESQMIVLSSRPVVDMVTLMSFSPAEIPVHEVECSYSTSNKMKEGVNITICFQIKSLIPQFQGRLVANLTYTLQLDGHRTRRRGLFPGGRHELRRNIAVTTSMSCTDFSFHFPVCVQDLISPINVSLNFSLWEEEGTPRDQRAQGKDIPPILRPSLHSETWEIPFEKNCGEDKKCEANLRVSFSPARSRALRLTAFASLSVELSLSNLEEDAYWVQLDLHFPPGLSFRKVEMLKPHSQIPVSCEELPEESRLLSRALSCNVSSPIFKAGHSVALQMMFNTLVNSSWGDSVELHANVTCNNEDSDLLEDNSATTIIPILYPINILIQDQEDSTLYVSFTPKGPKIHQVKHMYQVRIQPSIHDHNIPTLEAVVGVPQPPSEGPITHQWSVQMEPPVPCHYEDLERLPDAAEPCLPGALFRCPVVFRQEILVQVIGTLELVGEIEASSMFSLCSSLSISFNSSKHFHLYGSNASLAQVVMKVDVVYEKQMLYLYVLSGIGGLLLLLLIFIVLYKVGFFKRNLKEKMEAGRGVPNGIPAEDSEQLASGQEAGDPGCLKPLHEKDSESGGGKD
T1 sequence (P05107 23-769 partner): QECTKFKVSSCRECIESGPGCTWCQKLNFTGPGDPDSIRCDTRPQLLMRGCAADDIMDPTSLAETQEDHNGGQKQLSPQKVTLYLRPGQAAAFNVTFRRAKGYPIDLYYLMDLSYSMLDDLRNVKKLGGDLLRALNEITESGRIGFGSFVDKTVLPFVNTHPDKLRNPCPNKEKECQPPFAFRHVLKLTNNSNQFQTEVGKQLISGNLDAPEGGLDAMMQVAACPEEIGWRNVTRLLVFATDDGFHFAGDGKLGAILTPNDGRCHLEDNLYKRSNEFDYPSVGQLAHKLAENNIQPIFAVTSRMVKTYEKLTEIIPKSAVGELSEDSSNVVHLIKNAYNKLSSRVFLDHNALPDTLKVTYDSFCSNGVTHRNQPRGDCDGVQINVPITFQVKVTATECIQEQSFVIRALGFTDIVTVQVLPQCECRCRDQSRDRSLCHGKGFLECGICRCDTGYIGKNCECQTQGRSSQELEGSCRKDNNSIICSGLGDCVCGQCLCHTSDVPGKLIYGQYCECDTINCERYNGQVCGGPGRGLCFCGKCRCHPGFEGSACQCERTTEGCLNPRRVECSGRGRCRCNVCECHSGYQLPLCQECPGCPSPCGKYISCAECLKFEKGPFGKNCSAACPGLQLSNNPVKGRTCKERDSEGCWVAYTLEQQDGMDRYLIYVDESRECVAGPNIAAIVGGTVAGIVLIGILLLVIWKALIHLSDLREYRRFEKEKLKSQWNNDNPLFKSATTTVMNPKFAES

For `O=C(NCCCN1CCCC1=O)[C@@H]1C[C@H]1c1ccc(Sc2ccccc2Br)c(C(F)(F)F)c1` (relative stereo) [Example 5], the “% inhibition” value ([1]; @ 2 μM compound, 2 µM) was 94% @ 2 μM.

With `O=C(NCCCN1CCCC1=O)C1CC1c1ccc(Sc2ccccc2Br)c(Cl)c1Cl` (racemic) [Example 14, (±)-(2-Bromophenyl)[2,3-dichloro-4-(trans-(2-((3-(1-pyrrolidin-2-onyl)-prop-1-ylamino)carbonyl)cycloprop-1-yl)phenyl]sulfide] the inhibition at 1 µM [2] was 80% and the inhibition at 4 µM ([1]; @ 4 μM compound) was 92%.

`O=C(NCCCN1CCCC1=O)C1CC1c1ccc(Sc2cccc(N3CCOCC3)c2)c(C(F)(F)F)c1` (racemic) [Example 11, (±)-(3-Morpholin-1-ylphenyl)[2-trifluoromethyl-4-(trans-(2-((3-(1-pyrrolidin-2-onyl)-prop-1-ylamino)carbonyl)cycloprop-1-yl)phenyl]sulfide] was tested, and the inhibition at 4 µM ([1]; @ 4 μM compound) was 44%.

With `COc1ccccc1Sc1ccc(C2CC2C(=O)NCC(=O)O)c(Cl)c1Cl` (mixture of isomers) [Example 12] the inhibition at 4 µM ([1]; @ 4 μM compound) was 93%.

Compound `CC(C)c1ccccc1Sc1ccc(C2CC2C(=O)N2CCOCC2)c(Cl)c1Cl` (racemic) [Example 20, (±)-(2-Isopropylphenyl)[2,3-dichloro-4-(trans-(2-(morpholin-1-yl)carbonyl)cycloprop-1-yl)phenyl]sulfide] has an inhibition at 2 µM [1, 3] of 96%.

Work on `O=C(NCCCN1CCCC1=O)C1CC1c1ccc(Sc2ccccc2N2CCOCC2)c(C(F)(F)F)c1` (racemic) [Example 7, (±)-(2-Morpholin-1-ylphenyl)[2-trifluoromethyl-4-(trans-(2-((3-(1-pyrrolidin-2-onyl)-prop-1-ylamino)carbonyl)cycloprop-1-yl)phenyl]sulfide] yielded an inhibition at 1 µM [2] of 84%.

Compound `O=C(O)C1CC1c1ccc(Sc2ccccc2N2CCOCC2)c(Cl)c1Cl` (racemic) [Example 12, (±)-(2-Morpholin-1-ylphenyl)[2,3-dichloro-4-(trans-(2-carboxycycloprop-1-yl)phenyl]sulfide] has an inhibition at 4 µM ([1]; @ 4 μM compound) of 91%.

`CC(C)c1ccccc1Sc1ccc([C@@H]2C[C@H]2C(=O)NC2CCC2)c(Cl)c1Cl` (racemic) [Example 24, (±)-(2-Isopropylphenyl)[2,3-dichloro-4-(trans-2-(cyclobutylaminocarbonyl)cycloprop-1-yl)phenyl]sulfide] showed an inhibition at 2 µM [1, 3] of 94%.

`COc1ccccc1Sc1ccc(C2CC2C(=O)NCCC(=O)O)c(Cl)c1Cl` (mixture of isomers) [Example 13] gave an inhibition at 4 µM ([1]; @ 4 μM compound) of 95%.

With “(±)-(2-Isopropylphenyl)[2,3-dichloro-4-(trans-(2-(4-acetylpiperazin-1-yl)carbonyl)cycloprop-1-yl)phenyl]sulfide [Example 21]” the “% inhibition” value ([1]; @ 4 μM compound) was 96% @ 4 μM.

In the case of “(±)-(2-Isopropylphenyl)[2,3-dichloro-4-(trans-(2-(4-carboxypiperidin-1-yl)carbonyl)cycloprop-1-yl)phenyl]sulfide [Example 18]”, the “% inhibition” value ([1]; @ 4 μM compound) is reported as 94% @ 4 μM.

`CC(C)c1ccccc1Sc1ccc(C2CC2C(=O)N2CCCC(C(=O)O)C2)c(Cl)c1Cl` (racemic) [Example 3, (±)-(2-Isopropylphenyl)[2,3-dichloro-4-(trans-(2-(3-carboxypiperidine))carbonyl)cycloprop-1-yl)phenyl]sulfide] was tested, and the inhibition at 2 µM [2] was 90%.

With “(±)-(2-Isopropylphenyl)[2,3-dichloro-4-(trans-(2-(morpholin-1-yl)carbonyl)cycloprop-1-yl)phenyl]sulfide [Example 20]” the “% inhibition” value ([1]; @ 4 μM compound) was 96% @ 4 μM.

For `O=C(O)C1CCCN(c2ccccc2Sc2ccc(C3CC3C(=O)NCCCN3CCCC3=O)cc2C(F)(F)F)C1` (mixture of isomers) [Example 6, (±)-(2-(2-carboxyethyl)phenyl)[2-trifluoromethyl-4-(trans-(2-((3-(1-pyrrolidin-2-onyl)-prop-1-ylamino)carbonyl)cycloprop-1-yl)phenyl]sulfide], the inhibition at 2 µM ([1]; @ 2 μM compound) was 93%.

With “(±)-(2-Bromophenyl)[2-trifluoromethyl-4-(trans-(2-((3-(1-pyrrolidin-2-onyl)-prop-1-ylamino)carbonyl)cycloprop-1-yl)phenyl]sulfide [Example 1]” the “% inhibition” value ([1]; @ 2 μM compound) was 96% @ 2 μM.

With `O=C(NCCCN1CCCC1=O)C1CC1c1ccc(Sc2ccccc2N2CCCC2)c(C(F)(F)F)c1` (racemic) [Example 10, (±)-(2-Pyrrolidin-1-ylphenyl)[2-trifluoromethyl-4-(trans-(2-((3-(1-pyrrolidin-2-onyl)-prop-1-ylamino)carbonyl)cycloprop-1-yl)phenyl]sulfide] the inhibition at 4 µM ([2]; @ 4 μM compound) was 72%.

`O=C(NCCCN1CCCC1=O)C1CC1c1ccc(Sc2ccccc2Br)c(C(F)(F)F)c1` (racemic) [Example 1, (±)-(2-Bromophenyl)[2-trifluoromethyl-4-(trans-(2-((3-(1-pyrrolidin-2-onyl)-prop-1-ylamino)carbonyl)cycloprop-1-yl)phenyl]sulfide] gave an inhibition at 4 µM ([1]; @ 4 μM compound) of 92%.

With `O=C(NCCCN1CCCC1=O)[C@@H]1C[C@H]1c1ccc(Sc2ccccc2Br)c(C(F)(F)F)c1` (relative stereo) [Example 4] the “% inhibition” value ([1]; @ 2 μM compound, 2 µM) was 81% @ 2 μM.

In the case of `CC(C)c1ccccc1Sc1ccc([C@@H]2C[C@H]2C(=O)N2CCCCC2C(=O)O)c(Cl)c1Cl` (mixture of isomers) [Example 19, (±)-(2-Isopropylphenyl)[2,3-dichloro-4-(trans-(2-(2-carboxypiperidin-1-yl)carbonyl)cycloprop-1-yl)phenyl]sulfide], the “% inhibition” value ([1]; @ 4 μM compound) is reported as 96% @ 4 μM.

For “(±)-(2-Isopropylphenyl)[2,3-dichloro-4-(trans-2-(cyclobutylaminocarbonyl)cycloprop-1-yl)phenyl]sulfide [Example 24]”, the “% inhibition” value ([1]; @ 4 μM compound) was 96% @ 4 μM.

Compound `CC(C)c1ccccc1Sc1ccc(C2CC2C(=O)N2CCC2)c(Cl)c1Cl` (racemic) [Example 25, (±)-(2-Isopropylphenyl)[2,3-dichloro-4-(trans-(2-(azetidin-1-yl)carbonyl)cycloprop-1-yl)phenyl]sulfide] has an inhibition at 2 µM [1, 3] of 95%.

Compound `O=C(O)C1CC1c1ccc(Sc2ccccc2Br)c(Cl)c1Cl` (racemic) [Example 15, (±)-(2-Bromophenyl)[2,3-dichloro-4-(trans-(2-carboxycycloprop-1-yl)phenyl]sulfide] has an inhibition at 4 µM ([1]; @ 4 μM compound) of 88%.

Compound `CC(C)c1ccccc1Sc1ccc(C2CC2C(=O)NCCCN2CCCC2=O)c(Cl)c1Cl` (racemic) [Example 22, (±)-(2-Isopropylphenyl)[2,3-dichloro-4-(trans-(2-((3-(1-pyrrolidin-2-onyl)-prop-1-ylamino)carbonyl)cycloprop-1-yl)phenyl]sulfide] has an inhibition at 2 µM [2] of 92%.

In the case of `CC(C)c1ccccc1Sc1ccc(C2CC2C(=O)NCCCC(=O)O)c(Cl)c1Cl` (racemic) [Example 17, (±)-(2-Isopropylphenyl)[2,3-dichloro-4-(trans-(2-(3-carboxypropylamino)carbonyl)cycloprop-1-yl)phenyl]sulfide], the inhibition at 2 µM [2] is reported as 86%.

In the case of `CC(C)c1ccccc1Sc1ccc(C2CC2C(=O)NCC(=O)O)c(Cl)c1Cl` (racemic) [Example 2, (±)-(2-Isopropylphenyl)[2,3-dichloro-4-(trans-(carboxymethylamino)carbonyl)cycloprop-1-yl)phenyl]sulfide], the inhibition at 2 µM [1, 3] is reported as 95%.
